These results are taken from patent US20240174649A1, “CULLIN-RING E3 UBIQUITIN LIGASE 4 INHIBITOR COMPOUNDS AND METHODS OF THEIR USE” (ICAHN SCHOOL OF MEDICINE AT MOUNT SINAI, priority 2021, published 2024).

The structures appear in SMILES notation.

One experiment has as its target E3 (CUL1) (Homo sapiens (Human), UniProt Q13616). The experiment is described as follows: E3 (CUL1) inhibition (Table 1). The experiment is classed as biochemical. The procedure: The reaction mixture (15 μl) was assembled onto a 384-well microtiter plate. […] ATP (0.66 mM) was then added to the mix followed by a brief centrifugation to settle down the mixture. The resulting plate was incubated at 30° C. in the Synergy-H1 reader and the fluorescence signal was monitored. Ubiquitination was quantified based on the ratio of acceptor:donor fluorescence (excitation 515 nm; donor emission 570 nm, acceptor emission 670 nm).

The target of a further experiment is E3 (CUL4) (Homo sapiens (Human), UniProt Q13619). Kind of experiment: E3 (CUL4) inhibition (Table 1). Type of experiment: biochemical. The procedure:
The reaction was incubated for 5 min at 37° C. […] The reaction was incubated for 5 min at room temperature. In the second step (chase), the completed Cdc34b-Ub thiol ester reaction mixture was combined with one third of the completed mono-ubiquitination mixture. The final volume was adjusted to 10 μl with a mix that contained 50 mM Tris-HCl (pH 7.4), 0.5 mM DTT, 0.1 mg/ml of BSA, 5 mM MgCl2, and 2 mM ATP. Compounds were added where indicated. The chase reaction was incubated for 10 min at 37° C. The reaction products were separated by 4-20% SDS-polyacrylamide gel electrophoresis. The reaction scheme was identical to the one described above for FIGS. 12A-B. […] The reaction products, separated by SDS-PAGE, were visualized and analyzed by phospho-imaging using Typhoon 9500 scanner.

The subject of the next experiment is cancer cells. Kind of experiment: Apoptosis, Annexin V flow cytometry. The following applies: Table 1. Type of experiment: cell-based. The protocol:
Cells (5×10^4) were seeded 24 hours before compound treatment. Compound was added to the culture media and cells were cultured with the compound for 48 hours. The treated cells were then transferred into 5 ml flow cytometry tubes and the well was washed once with PBS to collect any remaining cells. The cells were then pelleted at 500×g for 5 min with a Beckman CS-6KR centrifuge at 4° C. After removal of supernatant, the cells pellet was washed with Annexin V binding buffer (10 mM Hepes-NaOH, pH 7.4, 150 mM NaCl, 5 mM KCl, 1 mM MgCl2, and 1.8 mM CaCl2). Cells were pelleted once again and incubated in the dark with Annexin V-FITC (2 μg/ml) in binding buffer for 5 min then analyzed using LSRFortessa flow cytometer (BD).
In general terms: A flow cytometer gives signals particle by particle.

E3 (CUL4), sequence (Q13619 whole entry): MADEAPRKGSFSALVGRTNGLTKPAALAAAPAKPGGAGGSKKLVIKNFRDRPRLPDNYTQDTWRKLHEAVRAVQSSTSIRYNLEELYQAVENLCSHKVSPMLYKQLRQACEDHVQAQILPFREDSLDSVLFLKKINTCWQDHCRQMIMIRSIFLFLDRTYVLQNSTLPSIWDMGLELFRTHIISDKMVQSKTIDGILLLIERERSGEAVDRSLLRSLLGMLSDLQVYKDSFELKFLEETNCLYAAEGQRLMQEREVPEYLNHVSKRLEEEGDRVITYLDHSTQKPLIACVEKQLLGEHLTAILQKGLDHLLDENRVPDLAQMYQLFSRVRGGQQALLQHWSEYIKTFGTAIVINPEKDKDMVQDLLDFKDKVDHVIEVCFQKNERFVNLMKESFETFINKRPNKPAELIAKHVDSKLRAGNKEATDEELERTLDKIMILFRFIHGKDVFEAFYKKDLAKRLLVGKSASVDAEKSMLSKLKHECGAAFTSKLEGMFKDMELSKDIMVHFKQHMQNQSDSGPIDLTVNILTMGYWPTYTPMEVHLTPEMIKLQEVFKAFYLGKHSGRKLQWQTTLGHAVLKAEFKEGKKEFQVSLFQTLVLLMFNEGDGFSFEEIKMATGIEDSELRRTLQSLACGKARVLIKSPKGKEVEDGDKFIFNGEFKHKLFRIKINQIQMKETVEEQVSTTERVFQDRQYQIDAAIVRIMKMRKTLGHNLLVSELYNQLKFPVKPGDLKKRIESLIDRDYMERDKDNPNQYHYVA
E3 (CUL4), sequence (P62877 whole entry partner): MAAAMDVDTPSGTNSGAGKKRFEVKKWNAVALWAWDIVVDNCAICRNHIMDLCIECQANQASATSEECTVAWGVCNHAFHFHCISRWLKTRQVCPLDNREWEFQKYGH
E3 (CUL1), sequence (Q13616 whole entry): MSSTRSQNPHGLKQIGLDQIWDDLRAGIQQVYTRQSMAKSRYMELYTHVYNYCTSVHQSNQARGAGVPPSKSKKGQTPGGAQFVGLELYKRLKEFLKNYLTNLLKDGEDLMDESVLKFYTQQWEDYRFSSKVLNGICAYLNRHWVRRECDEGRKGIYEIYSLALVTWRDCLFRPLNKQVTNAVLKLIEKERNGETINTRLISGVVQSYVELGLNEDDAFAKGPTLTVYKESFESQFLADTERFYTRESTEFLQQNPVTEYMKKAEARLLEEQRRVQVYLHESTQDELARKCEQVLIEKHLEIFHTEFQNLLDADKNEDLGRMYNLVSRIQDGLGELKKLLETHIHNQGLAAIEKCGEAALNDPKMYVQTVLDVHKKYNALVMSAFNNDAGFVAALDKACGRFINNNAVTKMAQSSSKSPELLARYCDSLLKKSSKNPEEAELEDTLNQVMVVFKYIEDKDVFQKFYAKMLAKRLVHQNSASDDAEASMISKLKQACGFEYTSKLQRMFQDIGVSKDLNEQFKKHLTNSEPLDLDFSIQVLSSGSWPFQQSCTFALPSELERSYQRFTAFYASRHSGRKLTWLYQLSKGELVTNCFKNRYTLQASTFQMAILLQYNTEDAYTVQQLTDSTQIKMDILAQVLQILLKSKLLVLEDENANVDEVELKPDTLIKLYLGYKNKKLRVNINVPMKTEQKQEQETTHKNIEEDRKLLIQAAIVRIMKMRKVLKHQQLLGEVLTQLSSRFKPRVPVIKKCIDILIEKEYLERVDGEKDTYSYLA
E3 (CUL1), sequence (P62877 whole entry partner): as the sequence (P62877 whole entry partner) above

A word on the EC50: it is the midpoint of the concentration-response curve. For the compound `O=c1c(-c2cnn(Cc3ccc(F)cc3)c2)c(C(F)(F)F)oc2c(O)c(O)ccc12` [MSSM-RJD-MM-013, 3-(1-(4-fluorobenzyl)-1H-pyrazol-4-yl)-7,8-dihydroxy-2-(trifluoromethyl)-4H-chromen-4-one], the results for the EC50 at E3 (CUL1), at E3 (CUL4) and with cancer cells were 7.2 µM, over 30 µM and over 20 µM, respectively.
Regarding `O=c1c(-c2cnn(Cc3ccc(Cl)cc3)c2)c(C(F)(F)F)oc2c(O)c(O)ccc12` [MSSM-RJD-MM-006, 3-(1-(4-chlorobenzyl)-1H-pyrazol-4-yl)-7,8-dihydroxy-2-(trifluoromethyl)-4H-chromen-4-one], the concentration giving a half-maximal response (EC50) on E3 (CUL1) is 7.6 µM; on E3 (CUL4) it was over 10 µM; in the experiment on cancer cells it was over 20 µM.
The like results for `Cc1cccc(Cn2cc(-c3c(C(F)(F)F)oc4c(O)c(O)ccc4c3=O)cn2)c1` [MSSM-RJD-MM-025, 7,8-dihydroxy-3-(1-(3-methylbenzyl)-1H-pyrazol-4-yl)-2-(trifluoromethyl)-4H-chromen-4-one] were, in that order, 3.9 µM, over 10 µM and 10 to 20 µM.
With `O=c1c(-c2cnn(-c3cccnc3)c2)c(C(F)(F)F)oc2c(O)c(O)ccc12` [KH-4-67], the “E3 (CUL1) Inhibition EC50” value at E3 (CUL1) was “Inactive”. Moreover, the “E3 (CUL4) Inhibition EC50” value on E3 (CUL4) was “Inactive”.
Consider `O=c1c(-c2cnn(-c3ccc(Cl)c(Cl)c3)c2)c(C(F)(F)F)oc2c(O)c(O)ccc12` [KH-4-99], for which the concentration for a half-maximal effect (EC50) was about 10 µM on E3 (CUL4) and 9 µM in the experiment on cancer cells.
With `O=c1c(-c2cnn(-c3ccc(C(F)(F)F)cc3)c2)c(C(F)(F)F)oc2c(O)c(O)ccc12` [KH-3-150], the concentration for a half-maximal effect (EC50) on E3 (CUL1) was 9.3 µM; at E3 (CUL4) it was over 14 µM; with cancer cells it was 6 µM.
As to `COc1cccc(Cn2cc(-c3c(C(F)(F)F)oc4c(OC)c(OC)ccc4c3=O)cn2)c1` [MSSM-RJD-MM-018, 7,8-dimethoxy-3-(1-(3-methoxybenzyl)-1H-pyrazol-4-yl)-2-(trifluoromethyl)-4H-chromen-4-one], the values for the EC50 at E3 (CUL1) and on E3 (CUL4) were over 100 µM and over 10 µM, respectively.
Regarding `COc1ccc2c(=O)c(-c3cnn(Cc4cccc(C)c4)c3)c(C(F)(F)F)oc2c1OC` [MSSM-RJD-MM-019], the half-maximal effective concentration (EC50) on E3 (CUL1) is 92 µM; on E3 (CUL4), over 10 µM.
For `O=c1c(-c2cnn(-c3cccc(C(F)(F)F)c3)c2)c(C(F)(F)F)oc2c(O)c(O)ccc12` [KH-4-65], the EC50 at E3 (CUL1) was 8 µM; on E3 (CUL4), over 14 µM.
Regarding `O=c1c(-c2cnn(Cc3ccccc3F)c2)c(C(F)(F)F)oc2c(O)c(O)ccc12` [MSSM-RJD-MM-022, 3-(1-(2-fluorobenzyl)-1H-pyrazol-4-yl)-7,8-dihydroxy-2-(trifluoromethyl)-4H-chromen-4-one], the EC50 was 30 µM at E3 (CUL1), over 10 µM at E3 (CUL4) and over 20 µM in the experiment with cancer cells.
With `NC(=O)c1ccccc1-n1cc(-c2c(C(F)(F)F)oc3c(O)c(O)ccc3c2=O)cn1` [KH-4-44], at E3 (CUL1), the EC50 turned out to be 10 µM. At E3 (CUL4), the “E3 (CUL4) Inhibition EC50” value was “Inactive”.
`O=c1c(-c2ccnn2Cc2ccccc2)c(C(F)(F)F)oc2c(O)c(O)ccc12` [KH-3-160A]: the EC50 was 3.4 µM on E3 (CUL1), about 20 µM at E3 (CUL4) and 21 µM with cancer cells.
`O=c1c(-c2cnn(-c3ccc(F)cc3)c2)c(C(F)(F)F)oc2c(O)c(O)ccc12` [KH-3-174]: the concentration giving a half-maximal response (EC50) at E3 (CUL1) is 8 µM; at E3 (CUL4), over 14 µM.
Regarding `O=c1c(-c2cnn(Cc3cc(C(F)(F)F)ccc3Cl)c2)c(C(F)(F)F)oc2c(O)c(O)ccc12` [MSSM-RJD-MM-027, 3-(1-(2-chloro-5-(trifluoromethyl)benzyl)-1H-pyrazol-4-yl)-7,8-dihydroxy-2-(trifluoromethyl)-4H-chromen-4-one], the EC50 was 5.6 µM on E3 (CUL1), over 10 µM on E3 (CUL4) and 10 to 20 µM with cancer cells.
The like results for `COc1ccc2c(=O)c(-c3cnn(Cc4ccc(F)cc4)c3)c(C(F)(F)F)oc2c1OC` [MSSM-RJD-MM-010, 3-(1-(4-fluorobenzyl)-1H-pyrazol-4-yl)-7,8-dimethoxy-2-(trifluoromethyl)-4H-chromen-4-one] were, in that order, over 100 µM, over 10 µM and over 20 µM.
On the same counts, the results for `O=c1c(-c2cnn(Cc3cc(C(F)(F)F)ccc3F)c2)c(C(F)(F)F)oc2c(O)c(O)ccc12` [MSSM-RJD-MM-026, 3-(1-(2-fluoro-5-(trifluoromethyl)benzyl)-1H-pyrazol-4-yl)-7,8-dihydroxy-2-(trifluoromethyl)-4H-chromen-4-one] are 6.5 µM, over 10 µM and over 20 µM.
The like results for `COc1ccc2c(=O)c(-c3cnn(Cc4cc(F)ccc4C(F)(F)F)c3)c(C(F)(F)F)oc2c1OC` [MSSM-RJD-MM-021, 3-(1-(5-fluoro-2-(trifluoromethyl)benzyl)-1H-pyrazol-4-yl)-7,8-dimethoxy-2-(trifluoromethyl)-4H-chromen-4-one] were, in that order, 66 µM, over 10 µM and about 20 µM.
`O=c1c(-c2cnn(-c3cc(Cl)cc(Cl)c3)c2)c(C(F)(F)F)oc2c(O)c(O)ccc12` [KH-4-116]: the figures for the EC50 at E3 (CUL4) and in the experiment on cancer cells were about 10 µM and 6 µM, respectively.
For the compound `O=c1c(-c2cnn(-c3cccc(F)c3)c2)c(C(F)(F)F)oc2c(O)c(O)ccc12` [KH-4-41], the EC50 at E3 (CUL1) is 5 µM; on E3 (CUL4), about 14 µM; with cancer cells, 9 µM.
`Nc1cccc(-n2cc(-c3c(C(F)(F)F)oc4c(O)c(O)ccc4c3=O)cn2)c1` [KH-4-78] gave an EC50 at E3 (CUL4) of over 14 µM. Besides, the “Apoptosis EC50” value in the experiment with cancer cells is recorded as “Inactive”.
With `O=c1cc(C(F)(F)F)oc2c(O)c(O)ccc12` [KH-3-50], at E3 (CUL1), the EC50 amounted to 4.9 µM. Moreover, at E3 (CUL4), the “E3 (CUL4) Inhibition EC50” value is listed as “Inactive”.
On to `O=c1c(-c2cnn(-c3ccc(Cl)cc3Cl)c2)c(C(F)(F)F)oc2c(O)c(O)ccc12` [KH-4-98], for which the concentration for a half-maximal effect (EC50) at E3 (CUL4) is about 10 µM; in the experiment with cancer cells, 9 µM.
On the same counts, the results for `Cc1cccc(-n2cc(-c3c(C(F)(F)F)oc4c(O)c(O)ccc4c3=O)cn2)c1` [KH-4-79] are about 14 µM and 19 µM.
In the case of `CC(=O)Oc1ccc2c(=O)cc(C(F)(F)F)oc2c1OC(C)=O` [KH-3-12], the 50% effective concentration (EC50) is 32 µM on E3 (CUL1) and over 75 µM on E3 (CUL4).
On the same counts, the results for `O=c1ccoc2c(O)c(O)ccc12` [KH-3-49] are 11 µM and over 75 µM.
Consider `O=c1c(-c2cnn(-c3ccccc3)n2)c(C(F)(F)F)oc2c(O)c(O)ccc12` [KH-5-09], for which the EC50 at E3 (CUL4) was over 14 µM.
Consider `O=c1c(-c2cnn(-c3ccccc3)c2)c(C(F)(F)F)oc2c(OS(=O)(=O)C(F)(F)F)c(O)ccc12` [KH-4-136], for which, on E3 (CUL4), the “E3 (CUL4) Inhibition EC50” value is recorded as “Inactive”. The “Apoptosis EC50” value with cancer cells is given as “Inactive”.
Consider `N#Cc1cccc(-n2cc(-c3c(C(F)(F)F)oc4c(O)c(O)ccc4c3=O)cn2)c1` [KH-4-66], for which the values for the EC50 on E3 (CUL1) and at E3 (CUL4) were 9 µM and over 14 µM, respectively.
On the same counts, the results for `COc1ccc2c(=O)c(-c3cnn(Cc4cccc(Cl)c4)c3)c(C(F)(F)F)oc2c1OC` [MSSM-RJD-MM-017, 3-(1-(3-chlorobenzyl)-1H-pyrazol-4-yl)-7,8-dimethoxy-2-(trifluoromethyl)-4H-chromen-4-one] are 82 µM and over 10 µM.
Regarding `O=c1c(-c2cnn(-c3ccccc3Cl)c2)c(C(F)(F)F)oc2c(O)c(O)ccc12` [KH-4-88], the 50% effective concentration (EC50) on E3 (CUL4) is over 14 µM; in the experiment on cancer cells, 26 µM.
